Measurements: patent US20100323990A1, “SHIP 1 MODULATOR PRODRUGS” (THE UNIVERSITY OF BRITISH COLUMBIA, priority 2006, published 2010)

Tests used:
[1] = test system: SHIP enzyme; experiment: In vitro SHIP enzyme assay (Assay 1), phosphate release by Malachite Green; assay type: biochemical; details: 10 ng enzyme/well, 100 μM inositol-1,3,4,5-tetrakisphosphate; note: key: a ‘+’ indicates a positive result for desired activity; a ‘−’ indicates a negative result for desired activity
Method: (§1) Assay 1) In vitro testing in a SHIP enzyme assay. Test compounds were dissolved in a suitable solvent (e.g. EtOH, DMSO and others) and diluted into aqueous buffer (20 mM Tris HCl, pH 7.5 and 10 mM MgCl2). SHIP enzyme assays were performed in 96-well microtitre plates with 10 ng of enzyme/well in a total volume of 25 μL of 20 mM Tris HCl, pH 7.5 and 10 mM MgCl2. SHIP enzyme was incubated with test extracts (provided in solvent) or vehicle for 15 min at 23° C. before the addition of 100 μM inositol-1,3,4,5-tetrakisphosphate (Echelon Biosciences Inc, Salt Lake City, Utah). After 20 min at 37° C. and the amount of inorganic phosphate released assessed by the addition of Malachite Green reagent and absorbance measurement at 650 nm. Assay 2) Macrophage TNF-α production. J774.1a macrophage cells were treated with 10 μg/mL of test compound dissolved in solvent (e.g. cyclodextran) for 40 minutes prior to the addition of 100 ng/mL LPS. Culture supernatants were collected after 2 hr and 5 hr for TNF-α determination by ELISA. Assay 3) Macrophage TNF-α NO assay. J774.1a macrophage cells were treated with 10 μg/ml of test compound dissolved in solvent for 40 minutes prior to the addition of LPS. Culture supernatants were collected after 24 hr. for determination of NO concentration using the Griess reagent. Assay 4) Stimulation of mast cells by FcεRI crosslinking. Mast cells were pre-loaded overnight in BMMC medium lacking IL-3 with 0.1 μg/ml anti-DNP IgE (SPE-7, Sigma, Oakville, Ont). For calcium flux measurements, cells were incubated with 2 μM fura 2-acetoxymethyl ester (Molecular Probes, Eugene, Oreg.) in Tyrode's buffer at 23° C. for 45 min. Cells were then washed and incubated in the presence of the test compound 30 min prior to stimulation with the indicated concentration of DNP-human serum albumin (DNP-HSA). Calcium influx was monitored by spectrofluorometry as described previously. For analysis of intracellular signaling, cells were pre-loaded with anti-DNP IgE as above, pre-treated with the test compound for 30 min at 37° C. and stimulated with 20 ng/ml DNP-HSA for 5 min. Total cell lysates were then prepared and analyzed for phospho-PKB, phospho-p38^MAPK, phospho-MAPK, Grb-2 (Cell Signalling, Mississauga, Ont) and SHIP^6 by immunoblot analysis. Assay 5) Mouse acute cutaneous anaphylaxis model. 6-8 week old CD1 mice (University of British Columbia Animal Facility, Vancouver, BC) were sensitized to the hapten DNP by cutaneous application of 25 μL of 0.5% dinitrofluorobenzene (DNFB) (Sigma, Oakville, Ont) in acetone to the shaved abdomen of mice for two consecutive days. 24 hrs later, test substances (dissolved in 10 μL of 1:2 DMSO:MeOH) were painted on the right ear while the left ear received vehicle control. 30 min after drug application, DNFB was applied to both ears to induce mast cell degranulation. A 6 mm punch was taken from the ear and immediately frozen on dry ice for subsequent determination of neutrophil myeloperoxidase (MPO) activity. Assay 6) Mouse endotoxemia model. 6-8 week old C57B16 mice (VCHRI Mammalian Model of Human Disease Core Facility, Vancouver, BC) were orally administered the test compound 30 min prior to an IP injection of 2 mg/kg of LPS (E. Coli serotype 0111:B4, Sigma, Oakville, Ont). Blood was drawn 2 hrs later for determination of plasma TNFα by ELISA. Assay 7) In vitro Mulitple Myeloma (MM) assay. The ability of SHIP activators to reduce tumor cell survival was assessed in MM cell lines treated with the test compound. The lines OPM1, OPM2, MM.1S and RPMI 8226 were plated at a density of 1×10^5 cells/mL in 200 μL of medium with various concentrations of the test compound, and viable cell numbers were determined on day 3 and day 5 by trypan blue exclusion. The lines RPMI 8226 and U266 were plated at a density of 1×10^6 cells/mL in 250 μL of medium with various concentrations of the test compound. At day 4, the medium of each culture was replaced by fresh medium containing the same concentration of test compound. […]

[2] = test system: J774.1a macrophage cells; experiment: Macrophage TNF-α production (Assay 2); assay type: cell-based; details: 10 μg/mL test compound, 100 ng/mL LPS, supernatants after 2 hr and 5 hr; note: key: a ‘+’ indicates a positive result for desired activity; a ‘−’ indicates a negative result for desired activity
Method: as §1

[3] = test system: J774.1a macrophage cells; experiment: Macrophage TNF-α NO assay (Assay 3), Griess reagent; assay type: cell-based; details: 10 μg/ml test compound, LPS, supernatants after 24 hr; note: key: a ‘+’ indicates a positive result for desired activity; a ‘−’ indicates a negative result for desired activity
Method: as §1

[4] = test system: plasma TNFα; experiment: Mouse endotoxemia model (Assay 6), plasma TNFα by ELISA; assay type: in vivo, mice; details: oral, 30 min prior to IP 2 mg/kg LPS, plasma TNFα 2 hrs later
Method: as §1, with “6-8 week old C57B16 mice (VCHRI Mammalian Model of Human Disease Core Facility, Vancouver, BC) were orally administered the test compound 30 min prior to an IP injection of 2 mg/kg of LPS (E. Coli serotype 0111:B4, Sigma, Oakville, Ont). Blood was drawn 2 hrs later for determination of plasma TNFα by ELISA. Assay 7) In vitro Mulitple Myeloma (MM) assay.” left out, “exclusion.” for “exclusion. The lines RPMI 8226 and U266 were plated at a density of 1×10^6 cells/mL in 250 μL of medium with various concentrations of the test compound. At day 4, the medium of each culture was replaced by fresh medium containing the same concentration of test compound.”

[5] = test system: MM cell lines; experiment: In vitro Multiple Myeloma (MM) assay (Assay 7); assay type: cell-based; details: viable cell number by trypan blue; [3H]-thymidine; note: key: a ‘+’ indicates a positive result for desired activity; a ‘−’ indicates a negative result for desired activity
Method: as §1

Row | Structure (SMILES) | Assay 1: SHIP enzyme assay, desired activity [1] | Assay 2: Macrophage TNF-α production, desired activity [2] | Assay 3: Macrophage NO assay, desired activity [3] | Assay 6: Mouse endotoxemia model, desired activity [4] | Assay 7: In vitro Multiple Myeloma (MM) assay, desired activity [5]
1 | CCc1cc(O)c(O)c2c1[C@]1(C)CCC3C(C)(C)CCC[C@]3(C)[C@H]1C2 (stereo partly shown) [Compound 18A] | + | + | + |  | 
2 | Cc1cc(OC(=O)C(CC(=O)O)NC(=O)CCC(=O)O)cc2c1[C@]1(C)CCC3C(C)(C)CCC[C@]3(C)[C@H]1C2 (stereo partly shown) [Compound 114] |  | + | + | + | 
3 | CC1(C)CCC[C@]2(C)[C@H]3Cc4cc(O)cc(O)c4[C@]3(C)CC[C@@H]12 [Compound 115] |  |  |  |  | +
4 | COC(=O)c1cc(O)c(O)c2c1[C@]1(C)CCC3C(C)(C)CCC[C@]3(C)[C@H]1C2 (stereo partly shown) | + |  | + |  | 
5 | CC1(C)CCC[C@]2(C)[C@H]3Cc4cc(O)ccc4[C@]3(C)CC[C@@H]12 [Compound 121] |  | + | + |  | +
6 | CC(=O)Oc1cc(C)c2c(c1)C[C@H]1[C@@]2(C)CCC2C(C)(C)CCC[C@@]21C (stereo partly shown) [Compound 102] |  | + | + |  | 
7 | Cc1cc(O)c2c(c1)C[C@@H]1[C@@]3(C)CCCC(C)(C)[C@@H]3CC[C@@]21C [Compound 122] |  | − | + |  | +
8 | Cc1cc(OC(=O)C(N)Cc2cnc[nH]2)cc2c1[C@]1(C)CCC3C(C)(C)CCC[C@]3(C)[C@H]1C2 (stereo partly shown) [Compound 123] |  | + | + |  | 
9 | COC(=O)c1cc(O)c(O)c2c1[C@@]1(C)CCC3C(C)(C)CCC[C@]3(C)[C@H]1C2 (stereo partly shown) | + |  | + |  | 
10 | Cc1cc2c(cc1O)C[C@@H]1[C@@]3(C)CCCC(C)(C)[C@@H]3CC[C@@]21C [Compound 101] |  | + | + |  | +
11 | Cc1cc(O)c(O)c2c1[C@@]1(C)CCC3C(C)(C)CCC[C@]3(C)[C@H]1C2 (stereo partly shown) | + |  |  |  | 
12 | CC1(C)CCC[C@@]2(C)C1CC[C@@]1(C)c3c(C(=O)O)cc(O)c(O)c3C[C@@H]12 (stereo partly shown) | + | + | + |  | 
13 | COc1ccc2c(c1O)C[C@@H]1[C@@]3(C)CCCC(C)(C)[C@@H]3CC[C@@]21C [Compound 118] |  | − | + |  | +
14 | COc1cc(O)cc2c1[C@]1(C)CC[C@H]3C(C)(C)CCC[C@]3(C)[C@H]1C2 [Compound 117] |  | + | + |  | +
15 | Cc1cc(OP(=O)(O)O)cc2c1[C@]1(C)CCC3C(C)(C)CCC[C@]3(C)[C@H]1C2 (stereo partly shown) [Compound 109] |  | − | + |  | +
16 | COc1cc(C)c2c(c1O)C[C@@H]1[C@@]3(C)CCCC(C)(C)[C@@H]3CC[C@@]21C [Compound 129] |  | − | + |  | 
17 | Cc1cc(OC(=O)C(N)CCCNC(=N)N)cc2c1[C@]1(C)CCC3C(C)(C)CCC[C@]3(C)[C@H]1C2 (stereo partly shown) [Compound 105] |  | + | + |  | 
18 | COC(=O)c1cc(O)c(O)c2c1[C@]1(C)CCC3C(C)(C)CCC[C@]3(C)[C@@H]1C2 (stereo partly shown) | + |  | + |  | 
